The text below walks through data of patent publication US5124339A, “Agents for potentiating the effects of antitumor agents and combating multiple drug resistance” (Burroughs Wellcome Company, priority 1989, dated 1992).

The subject of series [1] is Chinese hamster ovary cells (AuxBl and C5S32). In words: Reduction in cell number by Act D alone, MTT absorbance. The note with it: Cricetulus griseus, CHO, read-out: reduction in cell number below the value of completely untreated cultures.
Series [2] relates to Drug Resistant C5S32 Chinese hamster ovary cells. As to the kind of experiment: In vitro cytotoxicity of potentiating agents, MTT absorbance (drug resistant CHO). The note with it: for Normalized absorbance (surviving cells), potentiating agent + ACT D, fraction of Act D alone: C5S32, 96 h, Act D alone = 1.00.
Series [3] deals with resistant sublines of murine leukemia cells. The note with it: Tsuruo et al., Cancer Res.; cited from earlier work.
A short description of series [4]: In vitro cytotoxicity of potentiating agents, MTT absorbance (wildtype KB). Particulars: human, kb 3-1 cells.
Procedure: (§1) After 48 hours of incubation at 37° C., the media is changed and cells are treated with actinomycin D at 0.1 nM (3-1) or 20 nM (V-1). The test potentiating agent is introduced to one-half the untreated cultures and one-half the Act D treated cultures at 1 and 10 μM. After 96 hours of additional incubation at 37° C., 0.5 mg/ml MTT dye is added, the cells are incubated for three hours, after which the cells are dissolved in DMSO, and the absorbance is then read at 570 nm.
Series [5] deals with Wildtype KB 3-1 human KB epidermoid carcinoma cells. The series is described as above. The note with it: KB 3-1, 96 h, Act D alone = 1.00.
Procedure: as §1
Series [6] is described as follows: In vitro cytotoxicity of potentiating agents, MTT absorbance (wildtype CHO). Particulars: chinese hamster, auxb1 cells.
The subject of series [7] is Wildtype AUXB1 Chinese hamster ovary cells. The description is as above. The note with it: AUXB1, 96 h, Act D alone = 1.00.
Series [8] is described as follows: In vitro cytotoxicity of potentiating agents, MTT absorbance (drug resistant KB). The note with it: human, kb v-1 cells.
Procedure: as §1
The subject of series [9] is Drug Resistant KB V-1 human KB epidermoid carcinoma cells. The series is described as above. The note with it: KB V-1, 96 h, Act D alone = 1.00.
Procedure: as §1
Series [10] in a line: In vitro cytotoxicity of potentiating agents, MTT absorbance (drug resistant CHO). Particulars: chinese hamster, c5s32 cells.

Where a name gives a salt, the structure may show the parent alone. *1 amine or outer side, *2 acyl side, *3 side chain or, on linkers, in order; H or OH if unused. Where a SMILES comes first, the peptide text is derived from it. Bridges are numbered along the chain shown (N, C = ends). Roman numbers before positions name the chains, in order. [ ]: non-standard residue; d: D form. Actinocin(9to1) = Cc1c2oc3c(C)ccc(C(=O)[*:1])c3nc-2c(C(=O)[*:2])c(N)c1=O; NMeV = CN[C@H](C(=O)O)C(C)C; Sar = CNCC(=O)O

With `Cc1c2oc3c(C)ccc(C(=O)N[C@@H]4C(=O)N[C@H](C(C)C)C(=O)N5CCC[C@H]5C(=O)N(C)CC(=O)N(C)[C@@H](C(C)C)C(=O)O[C@@H]4C)c3nc-2c(C(=O)N[C@@H]2C(=O)N[C@H](C(C)C)C(=O)N3CCC[C@H]3C(=O)N(C)CC(=O)N(C)[C@@H](C(C)C)C(=O)O[C@@H]2C)c(N)c1=O` [Actinomycin D, reference compound] (I: T[dV]P[Sar][NMeV] / II: T[dV]P[Sar][NMeV]; ester I:1-I:C, II:1-II:C; linker I:N-II:N via Actinocin(9to1)), in series [1], the inhibition at 0.01 µM is 10 to 20%. Further, the “resistance of C5S32 cells to Actinomycin D compared to the parental AuxBI cell line” value in [2] (C5S32 vs parental AuxBI) is “about 200 fold”.
In the case of `C=C[C@H]1C[N@@]2CC[C@H]1C[C@@H]2[C@@H](O)c1ccnc2ccc(OC)cc12` [quinidine], the “enhance the activity of antitumor agents against resistant sublines of murine leukemia cells” value (shortened to “enhance the activity of antitumor agents”) in series [3] is “enhance the activity of antitumor agents against resistant sublines of murine leukemia cells”.
`CN1CCN(CCCN2c3ccccc3Sc3ccc(C(F)(F)F)cc32)CC1` [trifluoperazine]: in [3], the “enhance the activity of antitumor agents” value was “enhance the activity of antitumor agents against resistant sublines of murine leukemia cells”.
As for `COC(=O)C1=C(C)NC(C)=C(C(=O)OCCN(C)Cc2ccccc2)C1c1cccc([N+](=O)[O-])c1` (centres unmarked) [nicardipine], the “enhance the activity of antitumor agents” value in series [3] is on record as “enhance the activity of antitumor agents against resistant sublines of murine leukemia cells”.
As to `COc1ccc(CN(CCN(C)C)c2cccc(/C=C/C(=O)O)n2)cc1` [(A), (E)-3-(6-(N-(2-Dimethylaminoethyl)-4-methoxybenzyl-amino)-2-pyridyl)acrylic acid], the viability at 96 h, 1 µM in series [4] turned out to be 100%; in [6], 100%; in series [8], 70%; in [10], 68%. In addition, the viability at 96 h, 10 µM came out at 99% in series [4], 41% in series [6], 73% in series [8] and 28% in [10]. The “Normalized absorbance (surviving cells), potentiating agent + ACT D, fraction of Act D alone” value (from here on “Normalized absorbance … fraction of Act D alone”) in [5] (1 μM + Act D 0.1 nM) is given as 0.96; in series [5] (10 μM + Act D 0.1 nM) it was 0.97; in series [7] (1 μM + Act D 0.01 μM), 0.64; in series [7] (10 μM + Act D 0.01 μM), 0.05; in series [9] (1 μM + Act D 20 nM) it was 0.85; in series [9] (10 μM + Act D 20 nM), 0.80. Besides, the figures for the “Normalized absorbance … fraction of Act D alone” value in series [2] (1 μM + Act D 0.5 μM) and in series [2] (10 μM + Act D 0.5 μM) were 1.00 and 0.13, respectively.
On to `CCN(CC)CCn1c(=O)c(Cc2ccc(OC)cc2)nc2ccccc21` [caroverine], for which the “enhance the activity of antitumor agents” value in [3] is “enhance the activity of antitumor agents against resistant sublines of murine leukemia cells”.
In the case of `CN(C)CCCN1c2ccccc2CCc2ccc(Cl)cc21` [clomipramine], in [3], the “enhance the activity of antitumor agents” value is “enhance the activity of antitumor agents against resistant sublines of murine leukemia cells”.
Consider `COc1ccc(CCN(C)CCCC(C#N)(c2ccc(OC)c(OC)c2)C(C)C)cc1OC` (centres unmarked) [Verapamil], for which the “enhance the activity of antitumor agents” value in [3] is listed as “enhance the activity of antitumor agents against resistant sublines of murine leukemia cells”.
For `COc1ccc(CN(CCN(C)C)c2ccc(Br)cn2)cc1` [(B), N-(5-Bromo-2-pyridyl)-N-(4-methoxybenzyl)-N',N'-dimethyl-1,2-ethanediaminehydrobromide], the viability at 96 h, 1 µM in [4] came out at 97%; in series [6], 100%; in [8] it was 77%; in series [10] it was 100%. Moreover, the viability at 96 h, 10 µM in series [4] was found to be 86%; in series [6], 100%; in series [8] it was 56%; in [10], 91%. The “Normalized absorbance … fraction of Act D alone” value in series [5] (1 μM + Act D 0.1 nM) is given as 0.89; in [5] (10 μM + Act D 0.1 nM), 0.92; in series [7] (1 μM + Act D 0.01 μM) it was 1.00; in series [7] (10 μM + Act D 0.01 μM), 1.00; in [9] (1 μM + Act D 20 nM), 0.85; in [9] (10 μM + Act D 20 nM) it was 0.80. Besides, the results for the “Normalized absorbance … fraction of Act D alone” value in series [2] (1 μM + Act D 0.5 μM) and in series [2] (10 μM + Act D 0.5 μM) were 1.00 and 0.56, respectively.
In the case of `COc1ccc([C@@H]2Sc3ccccc3N(CCN(C)C)C(=O)[C@@H]2OC(C)=O)cc1` [diltiazem], the “enhance the activity of antitumor agents” value in series [3] is reported as “enhance the activity of antitumor agents against resistant sublines of murine leukemia cells”.
